Source: patent publication US20210253518A1, “KINASE INHIBITOR” (NISSAN CHEMICAL CORPORATION, priority 2018, published 2021)
Read-outs that look alike come from different tables or passages of the source.

Target: T1, LATS2 (Homo sapiens, UniProt Q9NRM7)
T1 sequence (Q9NRM7 1-1088): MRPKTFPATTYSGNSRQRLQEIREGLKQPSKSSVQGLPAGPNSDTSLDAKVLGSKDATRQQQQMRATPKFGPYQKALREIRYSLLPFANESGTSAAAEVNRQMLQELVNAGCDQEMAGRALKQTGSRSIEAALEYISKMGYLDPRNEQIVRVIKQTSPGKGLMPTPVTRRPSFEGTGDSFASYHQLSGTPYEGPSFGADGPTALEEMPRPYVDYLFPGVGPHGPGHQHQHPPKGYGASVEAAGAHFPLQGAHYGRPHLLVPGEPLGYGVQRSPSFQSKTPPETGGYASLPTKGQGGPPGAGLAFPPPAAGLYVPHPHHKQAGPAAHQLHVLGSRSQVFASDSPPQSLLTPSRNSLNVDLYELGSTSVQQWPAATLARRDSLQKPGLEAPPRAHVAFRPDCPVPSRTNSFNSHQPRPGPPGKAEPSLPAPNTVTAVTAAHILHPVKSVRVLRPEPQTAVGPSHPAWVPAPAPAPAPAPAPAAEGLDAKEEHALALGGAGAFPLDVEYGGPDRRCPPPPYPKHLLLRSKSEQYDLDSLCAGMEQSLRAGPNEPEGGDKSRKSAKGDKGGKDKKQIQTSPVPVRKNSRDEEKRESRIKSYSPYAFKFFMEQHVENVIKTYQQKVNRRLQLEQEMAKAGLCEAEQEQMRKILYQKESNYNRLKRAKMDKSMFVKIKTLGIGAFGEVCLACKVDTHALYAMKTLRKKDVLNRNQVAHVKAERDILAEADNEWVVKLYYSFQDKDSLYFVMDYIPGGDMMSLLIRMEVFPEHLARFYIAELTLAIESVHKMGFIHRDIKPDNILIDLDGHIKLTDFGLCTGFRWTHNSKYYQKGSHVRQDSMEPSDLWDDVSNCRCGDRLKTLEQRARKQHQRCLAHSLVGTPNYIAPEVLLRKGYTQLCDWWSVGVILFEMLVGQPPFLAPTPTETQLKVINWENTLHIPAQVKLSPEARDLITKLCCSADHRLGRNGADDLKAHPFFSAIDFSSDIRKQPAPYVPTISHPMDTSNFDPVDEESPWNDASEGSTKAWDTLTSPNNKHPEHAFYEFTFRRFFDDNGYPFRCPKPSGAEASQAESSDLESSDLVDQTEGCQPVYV
Experiment: Off-chip Mobility Shift Assay (MSA method), kinase inhibition
Type: biochemical
Conditions: for IC50: 10 steps from 10 μM to 0.3 nM; for inhibition at 0.1 µM: read-out: inhibition (%) LATS2
Procedure: For compound k-1:B-1, inhibitory activity evaluation (calculation of 50% inhibitory concentration (IC50)) was performed on 8 kinds of kinases (CGK2, LATS2, MSK1, p70S6K, PKACα, PKACβ, SGK2, SGK3). The activity was measured using the Off-chip Mobility Shift Assay (MSA method) described below. The compound was added such that the test concentration of k-1:B-1 was in 10 steps from the final concentration of 10 μM to 0.3 nM.
As an analysis method of the data, the mean signal of the control well containing all reaction components was set to 0% inhibition, the mean signal without enzyme addition was set to 100% inhibition, and the inhibition rate was calculated from the mean signal of 2 wells of each test substance test. The IC50 value was obtained by approximating a plot based on the test substance concentration and inhibition rate to a 4 parameter logistics curve by using the Excel Solver add-in and by the non-linear least squares method.
(§1) 5 μL of k-1:B-1 solution at 4-fold concentration, 5 μL of substrate/ATP/metal solution at 4-fold concentration, and 10 μL of kinase solution at 2-fold concentration, each prepared with assay buffer (20 mM HEPES, 0.01% Triton X-100, 2 mM DTT, pH 7.5), were mixed in the wells of a polypropylene 384-well plate and reacted at room temperature for 1 or 5 hr. Successively, 70 μL of Termination Buffer (QuickScout Screening Assist MSA; Carna Biosciences) was added to discontinue the reaction. Then, the substrate peptide and the phosphorylated peptide in the reaction solution were separated and quantified by the LabChip system (Perkin Elmer). The kinase reaction was evaluated by the resultant product ratio (P/(P+S)) calculated from the substrate peptide peak height (S) and the phosphorylated peptide peak height (P).
For compounds k-1:H-7, k-1:H-1, k-1:D-1, k-1:J-1, and k-1:B-1, inhibitory rate at 100 nM was calculated on 8 kinds of kinases (CGK2, LATS2, MSK1, p70S6K, PKACα, PKACβ, SGK2, SGK3). The activity was measured using the MSA method. As an analysis method of the data, the mean signal of the control well containing all reaction components was set to 0% inhibition, the mean signal without enzyme addition was set to 100% inhibition, and the inhibition rate was calculated from the mean signal of 2 wells of each test substance test.
as §1, with “a compound” for “k-1:B-1”
For compounds k-1:I-1, k-1:D-1, k-1:J-1, k-1:H-1, k-1:H-7, k-1:B-1, k-5:H-1, k-1:H-3, k-1:D-4 and k-1:I-10, inhibitory activity evaluation (calculation of IC50) was performed on LATS2. The activity was measured using the Off-chip Mobility Shift Assay (MSA method) described below. The compounds were added such that the test concentration of each compound was in 10 steps from the final concentration of 10 μM to 0.3 nM.
5 μL of k-1:I-1, k-1:D-1, k-1:J-1, k-1:H-1, k-1:H-7, k-1:B-1, k-5:H-1, k-1:H-3, k-1:D-4 and k-1:I-10 solutions at 4-fold concentration, 5 μL of substrate/ATP/metal solution at 4-fold concentration, and 10 μL of kinase solution at 2-fold concentration, each prepared with assay buffer (20 mM HEPES, 0.01% Triton X-100, 2 mM DTT, pH 7.5), were mixed in the wells of a polypropylene 384-well plate and reacted at room temperature for 1 or 5 hr. […]

Row | IC50 (MSA method) | inhibition at 0.1 µM (at 100 nM, MSA method) | SMILES | inhibition at 0.1 µM
1 | 12.9 nM | 92.1% | CCC(=NNC(=O)CNc1ccccc1)c1ccc(O)c(C)c1O [k-1:H-1] | 
2 | 5.12 nM | 93.8% | CC/C(=N\NC(=O)C(C)Nc1ccccc1)c1ccc(O)c(C)c1O (stereo not shown) [k-1:B-1] | 
3 | 6.57 nM | 95.8% | CCC(=NNC(=O)C(CC)Nc1ccccc1)c1ccc(O)c(C)c1O (stereo not shown) [k-1:H-7] | 

Row | SMILES | IC50 (MSA method) | inhibition at 0.1 µM (at 100 nM, MSA method) | inhibition at 0.1 µM
4 | CC/C(=N\NC(=O)NCc1cccc(O)c1)c1ccc(O)c(C)c1O [k-1:J-1] | 5.26 nM |  | 96.2%
5 | CC/C(=N\NC(=O)CNc1cccc(O)c1)c1ccc(O)c(C)c1O [k-1:D-1] | 1.84 nM |  | 101%
